The source of these data is patent US20260008768A1, “UREA DERIVATIVES FOR INHIBITING NLRP3 AND USES THEREOF” (VENTUS THERAPEUTICS U.S., INC., priority 2023, published 2026).

Usually pIC50 stands for the negative decadic logarithm of the IC50, by convention in mol/L. High values mean a small IC50, low ones a large IC50.

pIC50: −log10 of the molar value. Where only a bound is given, the exact number is not on record here.

The target in one test is human NLRP3 (Homo sapiens, UniProt Q96P20). Kind of test: Scintillation Proximity (SPA) NLRP3 Assay, displacement of 3H-MCC950. It is filed as binding. The note with it: Table B, activity class; displacement of 3H-MCC950 from human NLRP3. As to the method: Improved NLRP3 binding correlates with increased affinity for NLRP3 protein and, by extension, increased ability to interfere with its function.
human NLRP3, sequence (Q96P20 whole entry): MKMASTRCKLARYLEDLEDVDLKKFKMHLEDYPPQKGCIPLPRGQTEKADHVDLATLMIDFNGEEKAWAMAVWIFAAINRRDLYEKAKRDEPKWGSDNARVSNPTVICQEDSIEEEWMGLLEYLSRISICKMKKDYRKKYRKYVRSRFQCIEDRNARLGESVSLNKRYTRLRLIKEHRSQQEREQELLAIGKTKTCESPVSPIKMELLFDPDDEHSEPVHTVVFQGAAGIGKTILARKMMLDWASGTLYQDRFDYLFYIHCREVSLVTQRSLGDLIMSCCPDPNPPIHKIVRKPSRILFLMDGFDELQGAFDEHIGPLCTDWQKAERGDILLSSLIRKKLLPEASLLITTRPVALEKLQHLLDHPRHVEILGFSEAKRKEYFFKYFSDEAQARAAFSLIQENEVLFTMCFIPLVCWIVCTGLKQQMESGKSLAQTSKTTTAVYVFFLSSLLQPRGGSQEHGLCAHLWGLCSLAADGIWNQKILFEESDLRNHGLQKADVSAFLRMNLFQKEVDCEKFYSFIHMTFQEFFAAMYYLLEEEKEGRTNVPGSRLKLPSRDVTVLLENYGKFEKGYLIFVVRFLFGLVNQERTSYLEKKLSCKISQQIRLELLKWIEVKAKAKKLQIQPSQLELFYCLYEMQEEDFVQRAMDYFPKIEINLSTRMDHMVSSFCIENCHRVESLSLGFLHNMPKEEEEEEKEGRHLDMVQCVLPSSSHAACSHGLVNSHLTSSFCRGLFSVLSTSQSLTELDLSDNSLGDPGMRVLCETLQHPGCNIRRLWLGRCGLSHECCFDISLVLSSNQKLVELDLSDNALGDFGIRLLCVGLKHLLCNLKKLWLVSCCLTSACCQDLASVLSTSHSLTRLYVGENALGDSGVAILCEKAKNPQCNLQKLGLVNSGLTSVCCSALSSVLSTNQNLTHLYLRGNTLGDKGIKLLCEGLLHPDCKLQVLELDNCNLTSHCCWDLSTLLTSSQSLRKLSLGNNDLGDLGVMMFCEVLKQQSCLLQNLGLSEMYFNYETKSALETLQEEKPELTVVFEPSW
SPA experiments were conducted in a total volume of 20 μL assay buffer containing 20 mM HEPES pH 7.5, 150 mM NaCl, 5 mM MgCl2, 0.01% (v/v) Tween-20, 0.01% (w/v) bovine serum albumin (BSA) and 100 μM of adenosine diphosphate (ADP). A human NLRP3 protein (350 nM) (see, e.g., Sharif et al., Nature (2019) 570:338-343; Hochheiser et al., Nature (2022) 604:184-189; Adreeva et al., Cell (2021) 184:6299-6312; Wang et al., J Exp. Med. (2021) 219:e20211147) was incubated with various concentration of compounds in 5% dimethyl sulfoxide (DMSO) final for 15 minutes at room temperature in a white half-area 96 well OptiPlate (PerkinElmer #6002290) before adding 125 nM final of 3H-MCC950. After the addition of radiolabeled MCC950, the plate was incubated for 60 minutes at room temperature before adding 0.25 mg/ml of copper-coated polyvinyltoluene SPA beads (PerkinElmer #RPNQ0095). The plate was then transferred to a microplate counter (PerkinElmer 2450 Microbeta) to collect binding data. Binding data was analyzed 6 hrs post-PVT bead addition to allow sufficient time to reach equilibrium. Specific binding was calculated from averaged duplicates by subtracting signal from wells without NLRP3 protein.
SPA NLRP3 IC50 assay results are provided in Table B. “A” activity=<1 uM; “B” activity=1-10 uM; “C” activity=>10-50 uM; “D” activity=>50 uM-100 uM; and “E” activity=>100 uM.
For orientation: SPA uses beads or plates that emit light when radiolabelled molecules are held near them.
The molecule `C[C@@H]1CCN(c2nnn[nH]2)C[C@@H](NC(=O)N(C)c2ccc(C(F)F)c(F)c2)C1` (single isomer, unassigned) [22B*] showed a pIC50 of 5.00 to 6.00.
Molecule `C[C@H]1CCN(c2nnn[nH]2)C[C@H](NC(=O)N(C)c2ccc(C(F)F)c(F)c2)C1` (single isomer, unassigned) [22C*] showed a pIC50 of 4.30 to 5.00.
The same measure, in the same setting: with `C[C@H]1CCN(c2nnn[nH]2)C[C@@H](NC(=O)N(C)c2ccc(C(F)F)c(F)c2)C1` (single isomer, unassigned) [22D*] the figure was 5.00 to 6.00; with `C[C@@H]1CCN(c2nnn[nH]2)C[C@@H](NC(=O)N(C)c2ccc(C3CC3)c(F)c2)C1` (single isomer, unassigned) [23B*], 5.00 to 6.00.
Still for that read-out and setting: to `C[C@H]1CCN(c2nnn[nH]2)C[C@H](NC(=O)N(C)c2ccc(C3CC3)c(F)c2)C1` (single isomer, unassigned) [23C*] belongs 4.30 to 5.00.
Consider `C[C@H]1CCN(c2nnn[nH]2)C[C@@H](NC(=O)N(C)c2ccc(C3CC3)c(F)c2)C1` (single isomer, unassigned) [23D*], for which the pIC50 was 5.00 to 6.00.
The same measure, in the same setting: with `C[C@@H]1CCN(c2nnn[nH]2)C[C@@H](NC(=O)N(C)c2ccc(OC(F)(F)F)cc2F)C1` (single isomer, unassigned) [24B*] the figure was 5.00 to 6.00; with `C[C@H]1CCN(c2nnn[nH]2)C[C@H](NC(=O)N(C)c2ccc(OC(F)(F)F)cc2F)C1` (single isomer, unassigned) [24C*], 4.30 to 5.00; with `C[C@H]1CCN(c2nnn[nH]2)C[C@@H](NC(=O)N(C)c2ccc(OC(F)(F)F)cc2F)C1` (single isomer, unassigned) [24D*], 5.00 to 6.00.
Still for that read-out and setting: to `C[C@@H]1CCN(c2nnn[nH]2)C[C@@H](NC(=O)N(C)c2ccc(OC(F)(F)F)c(OC(F)F)c2)C1` (single isomer, unassigned) [25B*] belongs 5.00 to 6.00; to `C[C@H]1CCN(c2nnn[nH]2)C[C@H](NC(=O)N(C)c2ccc(OC(F)(F)F)c(OC(F)F)c2)C1` (single isomer, unassigned) [25C*], 5.00 to 6.00; to `C[C@H]1CCN(c2nnn[nH]2)C[C@@H](NC(=O)N(C)c2ccc(OC(F)(F)F)c(OC(F)F)c2)C1` (single isomer, unassigned) [25D*], 4.30 to 5.00.
The same measure, in the same setting: to `C[C@@H]1CCN(c2nnn[nH]2)C[C@@H](NC(=O)N(C)c2ccc(OC(F)(F)F)c(F)c2F)C1` (single isomer, unassigned) [26B*] belongs 5.00 to 6.00; to `C[C@H]1CCN(c2nnn[nH]2)C[C@H](NC(=O)N(C)c2ccc(OC(F)(F)F)c(F)c2F)C1` (single isomer, unassigned) [26C*], under 4.00; to `C[C@H]1CCN(c2nnn[nH]2)C[C@@H](NC(=O)N(C)c2ccc(OC(F)(F)F)c(F)c2F)C1` (single isomer, unassigned) [26D*], 4.30 to 5.00.
For the molecule `C[C@@H]1CCN(c2nnn[nH]2)C[C@H](NC(=O)Nc2ccc(Cl)cc2F)C1` (single isomer, unassigned) [27A*], the pIC50 is 5.00 to 6.00.
With `C[C@@H]1CCN(c2nnn[nH]2)C[C@@H](NC(=O)Nc2ccc(Cl)cc2F)C1` (single isomer, unassigned) [27B*], the pIC50 is 5.00 to 6.00.
The same measure, in the same setting: with `C[C@H]1CCN(c2nnn[nH]2)C[C@H](NC(=O)Nc2ccc(Cl)cc2F)C1` (single isomer, unassigned) [27C*] the figure was 4.30 to 5.00.
Still for that read-out and setting: to `C[C@H]1CCN(c2nnn[nH]2)C[C@@H](NC(=O)Nc2ccc(Cl)cc2F)C1` (single isomer, unassigned) [27D*] belongs under 4.00; to `C[C@@H]1CCN(c2nnn[nH]2)C[C@H](NC(=O)N(C)c2ccc(Cl)cn2)C1` (single isomer, unassigned) [28A*], 5.00 to 6.00.
For `C[C@@H]1CCN(c2nnn[nH]2)C[C@@H](NC(=O)N(C)c2ccc(Cl)cn2)C1` (single isomer, unassigned) [28B*], the pIC50 is 4.00 to 4.30.
On the same count and under the same terms, with `C[C@H]1CCN(c2nnn[nH]2)C[C@H](NC(=O)N(C)c2ccc(Cl)cn2)C1` (single isomer, unassigned) [28C*] the figure was 4.00 to 4.30; with `C[C@H]1CCN(c2nnn[nH]2)C[C@@H](NC(=O)N(C)c2ccc(Cl)cn2)C1` (single isomer, unassigned) [28D*], 4.30 to 5.00; with `C[C@@H]1CCN(c2nnn[nH]2)C[C@H](NC(=O)N(C)c2ccc(Cl)nc2)C1` (single isomer, unassigned) [29A*], 5.00 to 6.00.
`C[C@@H]1CCN(c2nnn[nH]2)C[C@@H](NC(=O)N(C)c2ccc(Cl)nc2)C1` (single isomer, unassigned) [29B*]: the pIC50 is 5.00 to 6.00.
Same read-out and setting: with `C[C@H]1CCN(c2nnn[nH]2)C[C@H](NC(=O)N(C)c2ccc(Cl)nc2)C1` (single isomer, unassigned) [29C*] the figure was 4.00 to 4.30; with `C[C@H]1CCN(c2nnn[nH]2)C[C@@H](NC(=O)N(C)c2ccc(Cl)nc2)C1` (single isomer, unassigned) [29D*], 4.30 to 5.00.
On the same count and under the same terms, to `C[C@@H]1CCN(c2nnn[nH]2)C[C@H](NC(=O)N(C)c2ncc(C(F)(F)F)cn2)C1` (single isomer, unassigned) [30A*] belongs under 4.00; to `C[C@@H]1CCN(c2nnn[nH]2)C[C@@H](NC(=O)N(C)c2ncc(C(F)(F)F)cn2)C1` (single isomer, unassigned) [30B*], under 4.00; to `C[C@H]1CCN(c2nnn[nH]2)C[C@H](NC(=O)N(C)c2ncc(C(F)(F)F)cn2)C1` (single isomer, unassigned) [30C*], under 4.00.
On the same count and under the same terms, to `C[C@H]1CCN(c2nnn[nH]2)C[C@@H](NC(=O)N(C)c2ncc(C(F)(F)F)cn2)C1` (single isomer, unassigned) [30D*] belongs under 4.00; to `C[C@@H]1CCN(c2nnn[nH]2)C[C@H](NC(=O)N(C)c2cnc(C(F)(F)F)nc2)C1` (single isomer, unassigned) [31A*], 4.30 to 5.00.
For `C[C@@H]1CCN(c2nnn[nH]2)C[C@@H](NC(=O)N(C)c2cnc(C(F)(F)F)nc2)C1` (single isomer, unassigned) [31B*], the pIC50 is 4.30 to 5.00.
Turning to `CC1CCN(c2nnn[nH]2)CC(NC(=O)N(C)c2cnc(C(F)(F)F)nc2)C1` (single isomer, unassigned) [31C*], the pIC50 was 4.30 to 5.00.
Same read-out and setting: with `C[C@H]1CCN(c2nnn[nH]2)C[C@@H](NC(=O)N(C)c2cnc(C(F)(F)F)nc2)C1` (single isomer, unassigned) [31D*] the figure was 4.30 to 5.00.
`C[C@@H]1CCN(c2nnn[nH]2)C[C@@H](NC(=O)N(C)c2cnc(C(F)(F)F)cn2)C1` (single isomer, unassigned) [32B*] had a pIC50 of 4.00 to 4.30.
`C[C@H]1CCN(c2nnn[nH]2)C[C@H](NC(=O)N(C)c2cnc(C(F)(F)F)cn2)C1` (single isomer, unassigned) [32C*]: the pIC50 was 4.00 to 4.30.
Still for that read-out and setting: to `C[C@H]1CCN(c2nnn[nH]2)C[C@@H](NC(=O)N(C)c2cnc(C(F)(F)F)cn2)C1` (single isomer, unassigned) [32D*] belongs 4.00 to 4.30; to `C[C@@H]1CCN(c2nnn[nH]2)C[C@H](NC(=O)N(C)c2ccc(C(F)(F)F)nn2)C1` (single isomer, unassigned) [33A*], 4.30 to 5.00.
Same read-out and setting: with `C[C@@H]1CCN(c2nnn[nH]2)C[C@@H](NC(=O)N(C)c2ccc(C(F)(F)F)nn2)C1` (single isomer, unassigned) [33B*] the figure was 4.00 to 4.30.
`C[C@H]1CCN(c2nnn[nH]2)C[C@H](NC(=O)N(C)c2ccc(C(F)(F)F)nn2)C1` (single isomer, unassigned) [33C*] showed a pIC50 of 4.00 to 4.30.
The same measure, in the same setting: to `C[C@H]1CCN(c2nnn[nH]2)C[C@@H](NC(=O)N(C)c2ccc(C(F)(F)F)nn2)C1` (single isomer, unassigned) [33D*] belongs 4.00 to 4.30.
Turning to `C[C@@H]1CCN(c2nnn[nH]2)C[C@@H](NC(=O)N(C)c2ccc(OC(F)F)c(F)c2F)C1` (single isomer, unassigned) [40B*], the pIC50 was 5.00 to 6.00.
In the case of `C[C@H]1CCN(c2nnn[nH]2)C[C@H](NC(=O)N(C)c2ccc(OC(F)F)c(F)c2F)C1` (single isomer, unassigned) [40C*], the pIC50 was 4.30 to 5.00.
Molecule `C[C@@H]1CCN(c2nnn[nH]2)C[C@@H](NC(=O)N(C)c2c(F)cc(OC(F)(F)F)cc2F)C1` (single isomer, unassigned) [41B*] showed a pIC50 of 5.00 to 6.00.
Same read-out and setting: with `C[C@H]1CCN(c2nnn[nH]2)C[C@H](NC(=O)N(C)c2c(F)cc(OC(F)(F)F)cc2F)C1` (single isomer, unassigned) [41C*] the figure was 4.00 to 4.30.
Take `C[C@H]1CCN(c2nnn[nH]2)C[C@@H](NC(=O)N(C)c2c(F)cc(OC(F)(F)F)cc2F)C1` (single isomer, unassigned) [41D*]: the pIC50 is 5.00 to 6.00.
Same read-out and setting: with `C[C@@H]1C[C@H](NC(=O)N(C)c2ccc(OC(F)F)cc2)[C@H]2CC[C@@H]1N2c1nnn[nH]1` (single isomer, unassigned) [42B*] the figure was 4.30 to 5.00; with `C[C@H]1C[C@@H](NC(=O)N(C)c2ccc(OC(F)F)cc2)[C@@H]2CC[C@H]1N2c1nnn[nH]1` (single isomer, unassigned) [42C*], under 4.00.

The test is the same for the next values; noted with them: Table C; displacement of 3H-MCC950 from human NLRP3.
On to `C[C@@H]1CCN(c2nnn[nH]2)C[C@H](NC(=O)Nc2ccc(Cl)cc2F)C1` (single isomer, unassigned) [27A*], for which the pIC50 is 5.85.
